Measurements as given in patent publication US20230085307A1, “PYRIDAZINONE COMPOUND AND HERBICIDE” (NISSAN CHEMICAL CORPORATION, priority 2019, published 2023).

What follows are compounds tested on blackgrass (assay: Test Example 4: herbicidal effect by soil treatment (Table 19, symbol J)). Settings: amount of applied herbicide 320 g/ha.
Format: in vivo, blackgrass (Alopecurus myosuroides)
Procedure, shortened: (§1)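 Herbicidal effect was rated 3 weeks after treatment, using the scoring criteria of an earlier test. The compound, formulated as an emulsion and diluted in water to a set herbicide amount, had been sprayed uniformly on soil over freshly sown seeds. Growth took place in a greenhouse at 25° C. to 30° C.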

Structure (SMILES) | J: blackgrass, herbicidal effect rating
Cc1nn(C)c(=O)c(-c2c(-c3ccccc3F)sc3ccc(F)cc23)c1O [2-199] | 0 (Herbicidal rate of 5% or less (almost no effect))
Cc1nn(C)c(=O)c(-c2c(-c3ccc(Br)cc3)sc3ccc(F)cc23)c1O [2-205] | 0 (Herbicidal rate of 5% or less (almost no effect))

What follows are compounds tested on lambsquarters (assay: Test Example 4: herbicidal effect by soil treatment (Table 19, symbol O)). Settings: amount of applied herbicide 320 g/ha.
Format: in vivo, lambsquarters (Chenopodium album)
Procedure, shortened: as §1

Structure (SMILES) | O: lambsquarters, herbicidal effect rating
Cc1nn(C)c(=O)c(-c2c(-c3ccccc3F)sc3ccc(F)cc23)c1O [2-199] | 4 (Herbicidal rate of 70% or more and less than 90%)
Cc1nn(C)c(=O)c(-c2c(-c3ccc(Br)cc3)sc3ccc(F)cc23)c1O [2-205] | 5 (Herbicidal rate of 90% or more (almost completely withered))

Each compound was assayed on velvetleaf (assay: Test Example 5: herbicidal effect by foliage application, plastic box (Table 20, symbol M)). Settings: foliage application, 320 g/ha, evaluated three weeks after application.
Format: in vivo, velvetleaf (Abutilon theophrasti)
Procedure, shortened: (§2)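 Foliar spray test: emulsion formulation diluted in water to a set application rate, sprayed onto 14-day-old plants raised in diluvial soil at 25° C to 30° C under glass. Both herbicidal effect and crop effect rated visually three weeks later.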

Structure (SMILES) | herbicidal effect on M: velvetleaf (criteria 0-5)
Cc1nn(C)c(=O)c(-c2c(-c3ccccc3F)sc3ccc(F)cc23)c1O [2-199] | 5 (Herbicidal rate of 90% or more (almost completely withered))
Cc1nn(C)c(=O)c(-c2c(-c3ccc(Br)cc3)sc3ccc(F)cc23)c1O [2-205] | 5 (Herbicidal rate of 90% or more (almost completely withered))

These compounds were tested on late watergrass (assay: Test Example 2: herbicidal activity, application during weed generation under submerged conditions (Table 17, symbol A)). Settings: AAH 320 g/ha; application during weed generation, submerged conditions.
Format: in vivo, late watergrass (Echinochloa oryzicola)
Procedure, shortened: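 Wagner pot, alluvial soil, 4 cm flood; mixed sowing of all species; greenhouse 25° C.–30° C. Emulsifiable formulation, water-diluted to predetermined dose, applied to paddy water at 1–2 leaf stage. Effect rated at 3 wk using the earlier test's scoring criteria.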

Structure (SMILES) | herbicidal effect rating, A: late watergrass
Cc1nn(C)c(=O)c(-c2c(-c3ccccc3F)sc3ccc(F)cc23)c1O [2-199] | 0 (Herbicidal rate of 5% or less (almost no effect))
Cc1nn(C)c(=O)c(-c2c(-c3ccc(Br)cc3)sc3ccc(F)cc23)c1O [2-205] | 2 (Herbicidal rate of 20% or more and less than 40%)

These compounds were tested on barnyard grass (assay: Test Example 3: herbicidal effect by foliage application, Wagner pot (Table 18, symbol H)). Settings: amount of applied herbicide 320 g/ha.
Format: in vivo, barnyard grass (Echinochloa crus-galli)
Procedure, shortened: (§3)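 Plants were sown in alluvial soil held under 0.1–0.5 cm standing water and grown 14 days in a greenhouse at 25–30 °C. An emulsifiable formulation, water-diluted to the set dose, was then sprayed onto the foliage, and effects were scored three weeks later using previously defined criteria.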

Structure (SMILES) | herbicidal effect on H: barnyard grass
Cc1nn(C)c(=O)c(-c2c(-c3ccccc3F)sc3ccc(F)cc23)c1O [2-199] | 5 (Herbicidal rate of 90% or more (almost completely withered))
Cc1nn(C)c(=O)c(-c2c(-c3ccc(Br)cc3)sc3ccc(F)cc23)c1O [2-205] | 5 (Herbicidal rate of 90% or more (almost completely withered))

What follows are compounds tested on Chinese sprangletop (assay: Test Example 3: herbicidal effect by foliage application, Wagner pot (Table 18, symbol D)). Settings: amount of applied herbicide 320 g/ha.
Format: in vivo, chinese sprangletop (Leptochloa chinensis)
Procedure, shortened: as §3

Structure (SMILES) | herbicidal effect on D: Chinese sprangletop
Cc1nn(C)c(=O)c(-c2c(-c3ccccc3F)sc3ccc(F)cc23)c1O [2-199] | 5 (Herbicidal rate of 90% or more (almost completely withered))
Cc1nn(C)c(=O)c(-c2c(-c3ccc(Br)cc3)sc3ccc(F)cc23)c1O [2-205] | 4 (Herbicidal rate of 70% or more and less than 90%)

These compounds were tested on redroot pigweed (assay: Test Example 5: herbicidal effect by foliage application, plastic box (Table 20, symbol N)). Settings: foliage application, 320 g/ha, evaluated three weeks after application.
Format: in vivo, redroot pigweed (Amaranthus retroflexus)
Procedure, shortened: as §2

Structure (SMILES) | herbicidal effect on N: redroot pigweed (criteria 0-5)
Cc1nn(C)c(=O)c(-c2c(-c3ccccc3F)sc3ccc(F)cc23)c1O [2-199] | 5 (Herbicidal rate of 90% or more (almost completely withered))
Cc1nn(C)c(=O)c(-c2c(-c3ccc(Br)cc3)sc3ccc(F)cc23)c1O [2-205] | 5 (Herbicidal rate of 90% or more (almost completely withered))

The compounds below were run on Italian ryegrass (assay: Test Example 4: herbicidal effect by soil treatment (Table 19, symbol K)). Settings: amount of applied herbicide 320 g/ha.
Format: in vivo, Italian ryegrass (Lolium multiflorum)
Procedure, shortened: as §1

Structure (SMILES) | K: Italian ryegrass, herbicidal effect rating
Cc1nn(C)c(=O)c(-c2c(-c3ccccc3F)sc3ccc(F)cc23)c1O [2-199] | 3 (Herbicidal rate of 40% or more and less than 70%)
Cc1nn(C)c(=O)c(-c2c(-c3ccc(Br)cc3)sc3ccc(F)cc23)c1O [2-205] | 5 (Herbicidal rate of 90% or more (almost completely withered))

The compounds below were run on persian speedwell (assay: Test Example 4: herbicidal effect by soil treatment (Table 19, symbol R)). Settings: amount of applied herbicide 320 g/ha.
Format: in vivo, Persian speedwell (Veronica persica)
Procedure, shortened: as §1

Structure (SMILES) | R: persian speedwell, herbicidal effect rating
Cc1nn(C)c(=O)c(-c2c(-c3ccccc3F)sc3ccc(F)cc23)c1O [2-199] | 0 (Herbicidal rate of 5% or less (almost no effect))
Cc1nn(C)c(=O)c(-c2c(-c3ccc(Br)cc3)sc3ccc(F)cc23)c1O [2-205] | 5 (Herbicidal rate of 90% or more (almost completely withered))

The compounds below were run on southern crabgrass (assay: Test Example 4: herbicidal effect by soil treatment (Table 19, symbol F)). Settings: amount of applied herbicide 320 g/ha.
Format: in vivo, southern crabgrass (Digitaria ciliaris)
Procedure, shortened: as §1

Structure (SMILES) | F: southern crabgrass, herbicidal effect rating
Cc1nn(C)c(=O)c(-c2c(-c3ccccc3F)sc3ccc(F)cc23)c1O [2-199] | 2 (Herbicidal rate of 20% or more and less than 40%)
Cc1nn(C)c(=O)c(-c2c(-c3ccc(Br)cc3)sc3ccc(F)cc23)c1O [2-205] | 5 (Herbicidal rate of 90% or more (almost completely withered))

What follows are compounds tested on lambsquarters (assay: Test Example 5: herbicidal effect by foliage application, plastic box (Table 20, symbol O)). Settings: foliage application, 320 g/ha, evaluated three weeks after application.
Format: in vivo, lambsquarters (Chenopodium album)
Procedure, shortened: as §2

Structure (SMILES) | herbicidal effect on O: lambsquarters (criteria 0-5)
Cc1nn(C)c(=O)c(-c2c(-c3ccccc3F)sc3ccc(F)cc23)c1O [2-199] | 5 (Herbicidal rate of 90% or more (almost completely withered))
Cc1nn(C)c(=O)c(-c2c(-c3ccc(Br)cc3)sc3ccc(F)cc23)c1O [2-205] | 5 (Herbicidal rate of 90% or more (almost completely withered))

The compounds below were run on blackgrass (assay: Test Example 5: herbicidal effect by foliage application, plastic box (Table 20, symbol J)). Settings: foliage application, 320 g/ha, evaluated three weeks after application.
Format: in vivo, blackgrass (Alopecurus myosuroides)
Procedure, shortened: as §2

Structure (SMILES) | herbicidal effect on J: blackgrass (criteria 0-5)
Cc1nn(C)c(=O)c(-c2c(-c3ccccc3F)sc3ccc(F)cc23)c1O [2-199] | 3 (Herbicidal rate of 40% or more and less than 70%)
Cc1nn(C)c(=O)c(-c2c(-c3ccc(Br)cc3)sc3ccc(F)cc23)c1O [2-205] | 4 (Herbicidal rate of 70% or more and less than 90%)

These compounds were tested on velvetleaf (assay: Test Example 4: herbicidal effect by soil treatment (Table 19, symbol M)). Settings: amount of applied herbicide 320 g/ha.
Format: in vivo, velvetleaf (Abutilon theophrasti)
Procedure, shortened: as §1

Structure (SMILES) | M: velvetleaf, herbicidal effect rating
Cc1nn(C)c(=O)c(-c2c(-c3ccccc3F)sc3ccc(F)cc23)c1O [2-199] | 1 (Herbicidal rate of 5% or more and less than 20%)
Cc1nn(C)c(=O)c(-c2c(-c3ccc(Br)cc3)sc3ccc(F)cc23)c1O [2-205] | 2 (Herbicidal rate of 20% or more and less than 40%)

These compounds were tested on windgrass (assay: Test Example 4: herbicidal effect by soil treatment (Table 19, symbol L)). Settings: amount of applied herbicide 320 g/ha.
Format: in vivo, windgrass (Apera spica-venti)
Procedure, shortened: as §1

Structure (SMILES) | L: windgrass, herbicidal effect rating
Cc1nn(C)c(=O)c(-c2c(-c3ccccc3F)sc3ccc(F)cc23)c1O [2-199] | 0 (Herbicidal rate of 5% or less (almost no effect))
Cc1nn(C)c(=O)c(-c2c(-c3ccc(Br)cc3)sc3ccc(F)cc23)c1O [2-205] | 0 (Herbicidal rate of 5% or less (almost no effect))

These compounds were tested on late watergrass (assay: Test Example 1: herbicidal activity, application before weed generation under submerged conditions (Table 16, symbol A)). Settings: 320 g/ha applied herbicide.
Format: in vivo, late watergrass (Echinochloa oryzicola)
Procedure, shortened: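 Alluvial soil was flooded to 4 cm depth, weed seeds were sown mixed and 2.5-leaf rice seedlings were transplanted. On sowing day, the compound's emulsion, diluted in water to a set dose, was applied to the water surface. Plants grew at 25–30 °C and were scored 0–5 after three weeks.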

Structure (SMILES) | Herbicidal effect on A: late watergrass (grade 0-5)
Cc1nn(C)c(=O)c(-c2c(-c3ccccc3F)sc3ccc(F)cc23)c1O [2-199] | 1 (Herbicidal rate of 5% or more and less than 20%)
Cc1nn(C)c(=O)c(-c2c(-c3ccc(Br)cc3)sc3ccc(F)cc23)c1O [2-205] | 4 (Herbicidal rate of 70% or more and less than 90%)

These compounds were tested on Italian ryegrass (assay: Test Example 5: herbicidal effect by foliage application, plastic box (Table 20, symbol K)). Settings: foliage application, 320 g/ha, evaluated three weeks after application.
Format: in vivo, Italian ryegrass (Lolium multiflorum)
Procedure, shortened: as §2

Structure (SMILES) | herbicidal effect on K: Italian ryegrass (criteria 0-5)
Cc1nn(C)c(=O)c(-c2c(-c3ccccc3F)sc3ccc(F)cc23)c1O [2-199] | 4 (Herbicidal rate of 70% or more and less than 90%)
Cc1nn(C)c(=O)c(-c2c(-c3ccc(Br)cc3)sc3ccc(F)cc23)c1O [2-205] | 5 (Herbicidal rate of 90% or more (almost completely withered))
